# Tests used:
# [1] = target: human Bisphosphoglycerate mutase (hBPGM) (Homo sapiens (Human), UniProt P07738); assay: BPGM Phosphatase Assay; type: biochemical; conditions: Table 6 additional results; read-out: huBPGM: phosphatase Enzyme EC50
# Protocol: Solutions of the test compounds were then added to the plate and the DMSO content was normalized across the plate. The plate was incubated at RT for 15 min. Next, the substrate 2,3-BPG (5 μL) was added to all the wells, and the plate was sealed and incubated for 24 hr at RT. After incubation, BIOMOL green dye (40 μL) was added to all the wells, the plate was shaken to mix, and the plate was incubated at RT for 20-30 min.
# hBPGM = hBPGM (Homo sapiens (Human), UniProt P07738); assay: BPGM Synthase Assay; type: biochemical; conditions: Table 6 additional results; read-out: huBPGM: synthase Enzyme IC50
# Method in brief: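 BPGM (5 nM) with GAPDH (0.4 U/mL) was incubated with compound for 30 min at RT in pH 7.4 Tris buffer with 3.23 mM KH2PO4 and 1 mM DTT. Reaction ran 60 min with NAD, 3PG and GAP (substrate solution 2 mM, 20 μM and 800 μM). After koningic acid stop, NADH fluorescence was read, then resorufin from diaphorase/resazurin coupling.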
# human red blood cells = assay: Human Cell-Based Assay; conditions: Erythrocyte; human whole blood suspension, 37° C., 24 h; metabolites (2,3-BPG, ATP) by LC/MS; read-out: hRBC EC50
# Protocol: Example B3. Human Cell-Based Assay
# The following materials were used in this assay: DMSO; Hemox buffer (30 mM TES, 135 mM NaCl, 5 mM KCl, pH 7.4); Inosine (100 mM in hemox buffer); Glucose (1 M in water); human red blood cells; LC/MS Optima grade methanol; LC/MS Optima grade water; and Incubation buffer (30 mM TES, 135 mM NaCl, 5 mM KCl, 50 mM inosine, 20 mM glucose pH 7.4).
# Test compounds were loaded onto a 96-well plate (final concentration of DMSO was 1%). 10 mL whole blood was resuspended with an equivalent amount of 2× incubation buffer to make 25% het & 50% plasma solution. The final solution contains 10 mM glucose and 25 mM inosine. The blood suspension (100 uL) was added to the wells of the plate. The plate was covered with an adhesive foil cover and plastic lid, and incubated at 37° C. for 24 h. The samples were extracted through an SPE column and the metabolites (2,3-BPG, ATP) were analyzed by LC/MS.
# Sequence of human Bisphosphoglycerate mutase (hBPGM) (P07738 whole entry): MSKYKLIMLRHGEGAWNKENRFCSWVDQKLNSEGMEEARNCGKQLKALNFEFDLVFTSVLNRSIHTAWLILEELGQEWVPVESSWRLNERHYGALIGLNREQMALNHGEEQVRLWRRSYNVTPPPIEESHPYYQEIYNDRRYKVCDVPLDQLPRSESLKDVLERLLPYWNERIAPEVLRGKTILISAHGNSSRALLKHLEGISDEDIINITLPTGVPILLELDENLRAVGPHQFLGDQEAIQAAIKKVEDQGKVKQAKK
# Sequence of hBPGM (P07738 whole entry, looked up): as the sequence (P07738 whole entry) above
Structure (SMILES),EC50 [1] [nM],IC50 (hBPGM) [nM],EC50 (human red blood cells) [nM]
COC(=O)NCc1nc(C)c(-c2csc(-c3ccc(C(=O)O)cc3)n2)s1 [Example 239],> 25000,730,
Cc1nc(C)c(-c2csc(-c3ccc(C(=O)O)c(O)c3F)n2)s1 [Example 240],2500,2300,
Cc1nc(CN)sc1-c1csc(-c2cc(O)c(C(=O)O)cc2F)n1 [Example 243],990,830,
Cc1nc(CN)sc1-c1csc(-c2ccc(C(=O)O)c(O)c2)c1 [Example 244],> 25000,840,
Cc1nc(CNC(=O)C2CC2)sc1-c1ccc(-c2ccc(C(=O)O)c(O)c2)s1 [Example 245],820,690,
Cc1nc(CNc2ccccn2)sc1-c1cccc(-c2ccc(C(=O)O)c(O)c2)c1 [Example 246],110,820,
Cc1nc(CNC(=O)C2COC2)sc1-c1cccc(-c2ccc(C(=O)O)c(O)c2)c1 [Example 247],3900,1000,
Cc1nc(Cn2cccn2)sc1-c1csc(-c2cc(O)c(C(=O)O)cc2F)n1 [Example 248],110,110,
Cc1nc(CNC(=O)C2CC2)sc1-c1csc(-c2ccc(C(=O)O)c(O)c2)n1 [Example 249],210,180,
Cc1nc(Cc2cccnc2)sc1-c1csc(-c2ccc(C(=O)O)c(O)c2)n1 [Example 250],290,250,
Cc1nc(CN)sc1-c1csc(-c2cc(O)c(C(=O)O)cc2F)c1 [Example 251],400,270,
Cc1nc(COC(N)=O)sc1-c1cccc(-c2ccc(C(=O)O)c(O)c2)c1 [Example 252],1000,1000,
Cc1nc(Cc2ccn(C)n2)sc1-c1cccc(-c2ccc(C(=O)O)c(O)c2)c1 [Example 253],150,190,
Cc1nc(C)c(-c2csc(-c3cc(O)c(C(=O)O)cc3F)c2)s1 [Example 254],220,290,
Cc1nc(C)c(-c2csc(-c3cc(O)c(C(=O)O)c(F)c3)n2)s1 [Example 255],1800,760,
Cc1nc(COc2cccc(C#N)n2)sc1-c1cccc(-c2ccc(C(=O)O)c(O)c2)c1 [Example 256],70,880,
Cc1ccc(Cc2nc(C)c(-c3cccc(-c4ccc(C(=O)O)c(O)c4)c3)s2)cn1 [Example 257],160,360,
Cc1nc(C)c(-c2cccc(-c3cc(O)c(C(=O)O)cc3F)n2)s1 [Example 259],> 25000,570,
Cc1nc(CN2CCCC2=O)sc1-c1cccc(-c2ccc(C(=O)O)c(O)c2)c1 [Example 260],5600,1400,
Cc1nc(Cn2cccn2)sc1-c1cccc(-c2cc(O)c(C(=O)O)cc2F)c1 [Example 262],510,530,
Cc1nc(CN2CCOC2=O)sc1-c1cccc(-c2ccc(C(=O)O)c(O)c2)c1 [Example 263],1400,1300,

Structure (SMILES),EC50 [1] [nM],IC50 (hBPGM) [nM],EC50 (human red blood cells) [nM]
Cc1nc(Cn2c(C)cccc2=O)sc1-c1cccc(-c2ccc(C(=O)O)c(O)c2)c1 [Example 267],350,520,
Cc1cccc(OCc2nc(C)c(-c3cccc(-c4ccc(C(=O)O)c(O)c4)c3)s2)n1 [Example 269],270,2000,
COCCOCCOCCOCc1nc(C)c(-c2csc(-c3ccc(C(=O)O)cc3)n2)s1 [Example 270],> 25000,4600,
COC(=O)NCc1nc(C)c(-c2cccc(-c3ccc(C(=O)O)c(O)c3)c2)s1 [Example 272],520,290,
Cc1nc(Cc2cccnc2)sc1-c1cccc(-c2ccc(C(=O)O)c(O)c2)c1 [Example 273],170,390,
Cc1nc(C)c(-c2csc(-c3ccc(C(=O)O)c(O)c3)c2)s1 [Example 274],390,430,
Cc1nc(C)c(-c2nc(-c3ccc(C(=O)O)c(O)c3)co2)s1 [Example 275],> 25000,5000,
Cc1nc(CNC(=O)C2CC2)sc1-c1cccc(-c2ccc(C(=O)O)c(O)c2)c1 [Example 276],590,480,
Cc1nc(Cc2cccnc2)sc1-c1cccc(-c2ccc(C(=O)O)cc2)c1 [Example 277],1100,860,
CC(=O)NCc1nc(C)c(-c2cccc(-c3ccc(C(=O)O)c(O)c3)c2)s1 [Example 278],2100,900,
Cc1cccc(Cc2nc(C)c(-c3cccc(-c4ccc(C(=O)O)c(O)c4)c3)s2)n1 [Example 279],6900,2600,
Cc1nc(Cc2ccccc2)sc1-c1csc(-c2ccc(C(=O)O)c(O)c2)n1 [Example 280],140,330,
Cc1nc(Cc2ccncc2)sc1-c1cccc(-c2ccc(C(=O)O)c(O)c2)c1 [Example 281],120,730,
Cc1nc(Cc2ccccn2)sc1-c1cccc(-c2ccc(C(=O)O)c(O)c2)c1 [Example 282],110,750,
Cc1nc(C)c(-c2nsc(-c3ccc(C(=O)O)c(O)c3)n2)s1 [Example 283],6500,1300,
Cc1nc(C)c(-c2csc(-c3cc(O)c(C(=O)O)cn3)n2)s1 [Example 284],2900,2800,
Cc1nc(C)c(-c2csc(-c3cc(O)c(C(=O)O)cc3F)n2)s1 [Example 285],400,320,
Cc1nc(Cn2cccn2)sc1-c1cccc(-c2ccc(C(=O)O)c(O)c2)c1 [Example 286],3100,810,
Cc1nc(Cc2ccccc2)sc1-c1cccc(-c2ccc(C(=O)O)c(O)c2)c1 [Example 289],130,1200,
"Cc1nc(COc2ncccn2)sc1-c1cccc(-c2ccc(S(=O)(=O)CC(=O)O)cc2)n1 [compound 2, 2-[4-[6-[4-methyl-2-(pyrimidin-2-yloxymethyl)thiazol-5-yl]-2-pyridyl]phenyl]sulfonylacetic Acid]",,,> 100000
"Cc1nc(COc2ccccn2)sc1-c1cccc(-c2ccc(C(=O)O)c(O)c2)c1 [compound 4, 2-hydroxy-4-[3-[4-methyl-2-(2-pyridyloxymethyl)thiazol-5-yl]phenyl]benzoic Acid]",,,23500
